Test results as given in patent US20250270213A1, “PI3Ka INHIBITORS” (Synnovation Therapeutics, Inc., priority 2022, published 2025).

system: T47D (PIK3CA H1047R) cells; assay: pS473 AKT assay with 2.5% FBS, T47D cells; assay type: cell-based; details: Homo sapiens, pSer473 AKT, DMEM with 2.5% FBS, 2 h treatment, read-out: T47D_IC50
Protocol: Example B. pS473 AKT Assay Protocol with 2.5% FBS
T47D (PIK3CA H1047R) cells were cultured using 10-cm petri dishes with recommended medium plus 10% fetal bovine serum. One day before the assay, cells were seeded in 96-well plates. After overnight incubation, the medium was changed to DMEM with 2.5% fetal bovine serum (FBS) and the cells were treated with different concentrations of the compounds for 2 h. Cells were then fixed using 4% paraformaldehyde at room temperature for 20 min. Aspirate 4% paraformaldehyde, and wash cells using 1× regular phosphate buffered saline 3 times, 5 min each. Aspirate any residual phosphate buffered saline and block cells using 10% goat serum containing 1% bovine serum albumin and 0.3% Triton X-100 at room temperature for 1 h. Without any additional washing, primary antibodies (rabbit anti-pSer473 AKT) were diluted using blocking buffer and added at a final volume of 50 microliter per well. Keep assay plates with primary antibodies overnight at 4° C. Wash cells using 1× regular phosphate buffered saline 3 times, 5 min each. After the final wash, incubate cells with horseradish peroxidase-conjugated secondary antibodies (goat Anti-rabbit IgG) diluted using the same blocking buffer at room temperature for 1 h. Wash cells thoroughly using 1× regular phosphate buffered saline 3 times, 5 min each. Aspirate any residual phosphate buffered saline. Add Super-Signal ELISA Pico Chemiluminescent Substrate at a final volume of 100 microliter per well. Read plates on i3x Multi-Mode Microplate Reader and calculate IC50 values using GraphPad Prism software.

| SMILES | IC50 [µM] |
| --- | --- |
| CCc1nn2c3c4c(cc(C)cc4c(=O)n(C)c13)C(Nc1ccc(C)nc1-c1ccncc1)C2 (centres unmarked) [Compound 40, 2-Ethyl-3,6-dimethyl-8-((6-methyl-[2,4′-bipyridin]-3-yl)amino)-8,9-dihydrobenzo[de]pyrazolo[4,5,1-ij][1,7]naphthyridin-4(3H)-one] | < 1 |
| CCn1ncc2c3c(C(C)Nc4ccc(Cl)nc4-c4ccc(=O)n(C)c4)cc(C)cc3c(=O)n(C)c21 (centres unmarked) [Compound 41, 9-(1-((6-chloro-1′-methyl-6′-oxo-1′,6′-dihydro-[2,3′-bipyridin]-3-yl)amino)ethyl)-3-ethyl-4,7-dimethyl-3,4-dihydro-5H-pyrazolo[3,4-c]isoquinolin-5-one] | < 1 |
| CCn1ncc2c3c(C(C)Nc4ccc(Cl)nc4-c4ccc(C(=O)NC)c(F)c4)cc(C)cc3c(=O)n(C)c21 (centres unmarked) [Compound 42, 4-(6-chloro-3-((1-(3-ethyl-4,7-dimethyl-5-oxo-4,5-dihydro-3H-pyrazolo[3,4-c]isoquinolin-9-yl)ethyl)amino)pyridin-2-yl)-2-fluoro-N-methylbenzamide] | < 1 |
| CCn1ncc2c3c(C(C)Nc4ccc(Cl)nc4-c4ccncn4)cc(C)cc3c(=O)n(C)c21 (centres unmarked) [Compound 43, 9-(1-((6-chloro-2-(pyrimidin-4-yl)pyridin-3-yl)amino)ethyl)-3-ethyl-4,7-dimethyl-3,4-dihydro-5H-pyrazolo[3,4-c]isoquinolin-5-one] | < 1 |
| CCn1ncc2c3c(C(C)Nc4ccc(Cl)nc4-c4cncnc4)cc(C)cc3c(=O)n(C)c21 (centres unmarked) [Compound 44, 9-(1-((6-chloro-2-(pyrimidin-5-yl)pyridin-3-yl)amino)ethyl)-3-ethyl-4,7-dimethyl-3,4-dihydro-5H-pyrazolo[3,4-c]isoquinolin-5-one] | < 1 |
| CCn1ncc2c3c(C(C)Nc4ccc(Cl)nc4-c4ccncc4F)cc(C)cc3c(=O)n(C)c21 (centres unmarked) [Compound 45, 9-(1-((6-chloro-3′-fluoro-[2,4′-bipyridin]-3-yl)amino)ethyl)-3-ethyl-4,7-dimethyl-3,4-dihydro-5H-pyrazolo[3,4-c]isoquinolin-5-one] | < 1 |
| CCn1ncc2c3c(C(C)Nc4ccc(Cl)nc4-c4ccc(C(=O)N(C)C)cc4)cc(C)cc3c(=O)n(C)c21 (centres unmarked) [Compound 46, 4-(6-chloro-3-((1-(3-ethyl-4,7-dimethyl-5-oxo-4,5-dihydro-3H-pyrazolo[3,4-c]isoquinolin-9-yl)ethyl)amino)pyridin-2-yl)-N,N-dimethylbenzamide] | < 1 |
| CCn1ncc2c3c(C(C)Nc4ccc(Cl)nc4-c4ccc(C(=O)O)cc4)cc(C)cc3c(=O)n(C)c21 (centres unmarked) [Compound 47, 4-(6-chloro-3-((1-(3-ethyl-4,7-dimethyl-5-oxo-4,5-dihydro-3H-pyrazolo[3,4-c]isoquinolin-9-yl)ethyl)amino)pyridin-2-yl) benzoic acid] | < 1 |
| CCn1ncc2c3c(C(C)Nc4ccc(Cl)nc4-c4ccnn4C)cc(C)cc3c(=O)n(C)c21 (centres unmarked) [Compound 48, 9-(1-((6-chloro-2-(1-methyl-1H-pyrazol-5-yl)pyridin-3-yl)amino)ethyl)-3-ethyl-4,7-dimethyl-3,4-dihydro-5H-pyrazolo[3,4-c]isoquinolin-5-one] | < 1 |
| CCn1ncc2c3c(C(C)Nc4ccc(Cl)nc4-c4cnn(C)c4C)cc(C)cc3c(=O)n(C)c21 (centres unmarked) [Compound 49, 9-(1-((6-chloro-2-(1,5-dimethyl-1H-pyrazol-4-yl)pyridin-3-yl)amino)ethyl)-3-ethyl-4,7-dimethyl-3,4-dihydro-5H-pyrazolo[3,4-c]isoquinolin-5-one] | < 1 |
| CCn1ncc2c3c(C(C)Nc4ccc(Cl)nc4-c4cnn(C)c4)cc(C)cc3c(=O)n(C)c21 (centres unmarked) [Compound 50, 9-(1-((6-chloro-2-(1-methyl-1H-pyrazol-4-yl)pyridin-3-yl)amino)ethyl)-3-ethyl-4,7-dimethyl-3,4-dihydro-5H-pyrazolo[3,4-c]isoquinolin-5-one] | < 1 |
| CCn1ncc2c3c(C(C)Nc4ccc(Cl)nc4-c4cn[nH]c4)cc(C)cc3c(=O)n(C)c21 (centres unmarked) [Compound 51, 9-(1-((6-chloro-2-(1H-pyrazol-4-yl)pyridin-3-yl)amino)ethyl)-3-ethyl-4,7-dimethyl-3,4-dihydro-5H-pyrazolo[3,4-c]isoquinolin-5-one] | < 1 |
| CCn1ncc2c3c(C(C)Nc4ccc(C)nc4-c4cnn(C)c4)cc(C)cc3c(=O)n(C)c21 (centres unmarked) [Compound 52, 3-Ethyl-4,7-dimethyl-9-(1-((6-methyl-2-(1-methyl-1H-pyrazol-4-yl)pyridin-3-yl)amino)ethyl)-3,4-dihydro-5H-pyrazolo[3,4-c]isoquinolin-5-one] | < 1 |
| CCn1ncc2c3c(C(C)Nc4ccc(C)nc4-c4cn[nH]c4)cc(C)cc3c(=O)n(C)c21 (centres unmarked) [Compound 53, 3-ethyl-4,7-dimethyl-9-(1-((6-methyl-2-(1H-pyrazol-4-yl)pyridin-3-yl)amino)ethyl)-3,4-dihydro-5H-pyrazolo[3,4-c]isoquinolin-5-one] | < 1 |
| CCn1ncc2c3c(C(C)Nc4ccc(C)nc4-c4ccnn4C)cc(C)cc3c(=O)n(C)c21 (centres unmarked) [Compound 54, 3-ethyl-4,7-dimethyl-9-(1-((6-methyl-2-(1-methyl-1H-pyrazol-5-yl)pyridin-3-yl)amino)ethyl)-3,4-dihydro-5H-pyrazolo[3,4-c]isoquinolin-5-one] | < 1 |
| CCn1ncc2c3c(C(C)Nc4ccc(C)nc4-c4ccc(C(=O)NC)c(F)c4)cc(C)cc3c(=O)n(C)c21 (centres unmarked) [Compound 55, 4-(3-((1-(3-ethyl-4,7-dimethyl-5-oxo-4,5-dihydro-3H-pyrazolo[3,4-c]isoquinolin-9-yl)ethyl)amino)-6-methylpyridin-2-yl)-2-fluoro-N-methylbenzamide] | < 1 |
| CCn1ncc2c3c(C(C)Nc4ccccc4-c4cnn(CCO)c4)cc(C)cc3c(=O)n(C)c21 (centres unmarked) [Compound 56, 3-ethyl-9-(1-((2-(1-(2-hydroxyethyl)-1H-pyrazol-4-yl)phenyl)amino)ethyl)-4,7-dimethyl-3,4-dihydro-5H-pyrazolo[3,4-c]isoquinolin-5-one] | < 1 |
| CCn1ncc2c3c(C(C)Nc4ccccc4N4CCN(C(C)=O)CC4)cc(C)cc3c(=O)n(C)c21 (centres unmarked) [Compound 57, 9-(1-((2-(4-Acetylpiperazin-1-yl)phenyl)amino)ethyl)-3-ethyl-4,7-dimethyl-3,4-dihydro-5H-pyrazolo[3,4-c]isoquinolin-5-one] | < 1 |
| CCn1ncc2c3c(C(C)Nc4ccccc4N4CCn5cnnc5C4)cc(C)cc3c(=O)n(C)c21 (centres unmarked) [Compound 58, 9-(1-((2-(5,6-Dihydro-[1,2,4]triazolo[4,3-a]pyrazin-7(8H)-yl)phenyl)amino)ethyl)-3-ethyl-4,7-dimethyl-3,4-dihydro-5H-pyrazolo[3,4-c]isoquinolin-5-one] | < 1 |
| CCn1ncc2c3c(C(C)Nc4ccc(Cl)nc4-c4noc(=O)[nH]4)cc(C)cc3c(=O)n(C)c21 (centres unmarked) [Compound 59, 3-(6-Chloro-3-((1-(3-ethyl-4,7-dimethyl-5-oxo-4,5-dihydro-3H-pyrazolo[3,4-c]isoquinolin-9-yl)ethyl)amino)pyridin-2-yl)-1,2,4-oxadiazol-5(4H)-one] | < 1 |
| CCn1ncc2c3c(C(C)Nc4ccc(Cl)nc4-c4noc(=O)[nH]4)cc(C)cc3c(=O)n(CC(F)F)c21 (centres unmarked) [Compound 60, 3-(6-Chloro-3-((1-(4-(2,2-difluoroethyl)-3-ethyl-7-methyl-5-oxo-4,5-dihydro-3H-pyrazolo[3,4-c]isoquinolin-9-yl)ethyl)amino)pyridin-2-yl)-1,2,4-oxadiazol-5(4H)-one] | < 1 |
| Cc1cc(C(C)Nc2ccc(Cl)nc2-c2noc(=O)[nH]2)c2c(c1)c(=O)n(C)c1c2cnn1C1CCCC1 (centres unmarked) [Compound 61, 3-(6-Chloro-3-((1-(3-cyclopentyl-4,7-dimethyl-5-oxo-4,5-dihydro-3H-pyrazolo[3,4-c]isoquinolin-9-yl)ethyl)amino)pyridin-2-yl)-1,2,4-oxadiazol-5(4H)-one] | < 1 |
| Cc1cc(C(C)Nc2ccc(Cl)nc2-c2noc(=O)[nH]2)c2c(c1)c(=O)n(C)c1c2cnn1C(C)C (centres unmarked) [Compound 62, 3-(6-Chloro-3-((1-(3-isopropyl-4,7-dimethyl-5-oxo-4,5-dihydro-3H-pyrazolo[3,4-c]isoquinolin-9-yl)ethyl)amino)pyridin-2-yl)-1,2,4-oxadiazol-5(4H)-one] | < 1 |
| CCn1ncc2c3c(C(C)Nc4ccc(Cl)nc4-c4noc(=O)[nH]4)cc(Cl)cc3c(=O)n(C)c21 (centres unmarked) [Compound 63, 3-(6-Chloro-3-((1-(7-chloro-3-ethyl-4-methyl-5-oxo-4,5-dihydro-3H-pyrazolo[3,4-c]isoquinolin-9-yl)ethyl)amino)pyridin-2-yl)-1,2,4-oxadiazol-5(4H)-one] | < 1 |
| CC(Nc1ccc(Cl)nc1-c1noc(=O)[nH]1)c1cc(Cl)cc2c(=O)n(C)c3c(cnn3CC3CC3)c12 (centres unmarked) [Compound 64, 3-(6-Chloro-3-((1-(7-chloro-3-(cyclopropylmethyl)-4-methyl-5-oxo-4,5-dihydro-3H-pyrazolo[3,4-c]isoquinolin-9-yl)ethyl)amino)pyridin-2-yl)-1,2,4-oxadiazol-5(4H)-one] | < 1 |
| CCCn1ncc2c3c(C(C)Nc4ccc(Cl)nc4-c4noc(=O)[nH]4)cc(C)cc3c(=O)n(C)c21 (centres unmarked) [Compound 65, 3-(6-Chloro-3-((1-(4,7-dimethyl-5-oxo-3-propyl-4,5-dihydro-3H-pyrazolo[3,4-c]isoquinolin-9-yl)ethyl)amino)pyridin-2-yl)-1,2,4-oxadiazol-5(4H)-one] | < 1 |
